Article PMC4735795, “Deciphering the Receptor Repertoire Encoding Specific Odorants by Time-Lapse Single-Cell Array Cytometry” (Scientific Reports, 2016)

Legend:
Experiment in all cases: GloSensor cAMP luminescence in HEK293T
Assay type in all cases: cell-based
Conditions in all cases: agonist; co-expressed Golf alpha and RTP1S; N = 12
[1] = biological target: T1, Olfr45 (mOR253-2) (Mus musculus, UniProt A0JLW4)
T1 construct: full-length from mouse genomic DNA in pCI-neo; N-terminal rhodopsin and myc tags; HEK293T with co-transfected Golf alpha, RTP1S and GloSensor-22F
T1 sequence (A0JLW4 1-311): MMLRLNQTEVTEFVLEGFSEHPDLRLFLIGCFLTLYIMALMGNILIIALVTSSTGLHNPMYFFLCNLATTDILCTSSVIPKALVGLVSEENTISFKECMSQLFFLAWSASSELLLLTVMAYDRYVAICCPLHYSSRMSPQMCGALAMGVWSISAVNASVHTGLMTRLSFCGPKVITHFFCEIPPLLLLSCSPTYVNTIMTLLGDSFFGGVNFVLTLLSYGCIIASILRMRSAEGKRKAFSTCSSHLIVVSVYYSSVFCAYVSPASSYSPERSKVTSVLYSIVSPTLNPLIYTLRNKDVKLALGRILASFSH

[2] = biological target: T2, Olfr166 (mOR270-1) (Mus musculus, UniProt Q0VEL6)
T2 construct: full-length from mouse genomic DNA in pCI-neo; N-terminal rhodopsin and myc tags; HEK293T with co-transfected Golf alpha, RTP1S and GloSensor-22F
T2 sequence (Q0VEL6 1-312): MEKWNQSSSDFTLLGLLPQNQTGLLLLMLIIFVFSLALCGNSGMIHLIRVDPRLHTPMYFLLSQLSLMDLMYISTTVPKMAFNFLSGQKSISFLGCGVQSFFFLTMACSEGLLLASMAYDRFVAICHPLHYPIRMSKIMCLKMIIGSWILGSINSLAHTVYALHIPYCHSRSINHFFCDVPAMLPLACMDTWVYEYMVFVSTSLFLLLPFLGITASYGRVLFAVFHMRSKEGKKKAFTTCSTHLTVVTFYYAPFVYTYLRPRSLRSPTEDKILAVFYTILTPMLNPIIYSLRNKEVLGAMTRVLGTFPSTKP

[3] = biological target: T3, Olfr168 (mOR271-1) (Mus musculus, UniProt A0PK36)
T3 construct: full-length from mouse genomic DNA in pCI-neo; N-terminal rhodopsin and myc tags; HEK293T with co-transfected Golf alpha, RTP1S and GloSensor-22F
T3 sequence (A0PK36 1-312): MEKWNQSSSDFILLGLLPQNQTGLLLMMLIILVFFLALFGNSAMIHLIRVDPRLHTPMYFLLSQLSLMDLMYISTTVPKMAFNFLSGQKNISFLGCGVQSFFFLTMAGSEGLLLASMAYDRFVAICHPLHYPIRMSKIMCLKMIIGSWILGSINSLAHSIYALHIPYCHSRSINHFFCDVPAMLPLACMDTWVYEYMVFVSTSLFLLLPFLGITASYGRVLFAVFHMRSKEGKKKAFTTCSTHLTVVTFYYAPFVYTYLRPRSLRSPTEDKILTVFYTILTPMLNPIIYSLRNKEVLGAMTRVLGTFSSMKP

[4] = biological target: T4, Olfr1258 (mOR232-3) (Mus musculus, UniProt Q8VGN6)
T4 construct: gene Or4c10; full-length from mouse genomic DNA in pCI-neo; N-terminal rhodopsin and myc tags; HEK293T with co-transfected Golf alpha, RTP1S and GloSensor-22F
T4 sequence (Q8VGN6 1-311): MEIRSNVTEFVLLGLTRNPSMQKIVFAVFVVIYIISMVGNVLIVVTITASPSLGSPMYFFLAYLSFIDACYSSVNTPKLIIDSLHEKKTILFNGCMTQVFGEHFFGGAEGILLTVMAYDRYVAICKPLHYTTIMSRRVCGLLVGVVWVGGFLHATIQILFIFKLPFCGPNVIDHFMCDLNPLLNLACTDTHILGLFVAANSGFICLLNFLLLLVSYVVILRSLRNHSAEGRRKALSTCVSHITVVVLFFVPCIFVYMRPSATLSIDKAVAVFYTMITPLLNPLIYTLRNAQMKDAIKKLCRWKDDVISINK

c1ccncc1 [pyridine]
GloSensor cAMP luminescence in HEK293T [1]: both Olfr45 and Olfr166 were activated by pyridine | GloSensor cAMP luminescence in HEK293T [2]: both Olfr45 and Olfr166 were activated by pyridine

CCCC(C)=O [2-pentanone]
EC50 [3]: 2100 ± 600 µM

CCC(C)=O [2-butanone]
GloSensor cAMP luminescence in HEK293T [4]: Olfr1258 was activated by 2-butanone
